According to patent publication US11091511B2, “Panaxdiol-type ginsenoside derivative, preparation method therefor and use thereof” (ARMY MEDICAL UNIVERSITY, priority 2016, dated 2021):
Marks after values point to notes of the source that are not given here.

Columns and labels:
[1] = test system: RAW264.7 cell-derived foam cells; assay: Formation of RAW264.7 cell-derived foam cells (ox-LDL, oil red O, absorbance 490 nm); format: cell-based, mouse; conditions: 48 hours, model group = 100%, x ± s, n = 3
Procedure: The effects of the compounds prepared in Examples 1-30 of the present invention on the formation of RAW264.7 cell-derived foam cells, the specific steps are as follows:
1. Cell culture and foam cell model establishment:
RAW264.7 cells were cultured in DMEM culture medium with high glucose level (GIBCO) to a cell concentration of 1×10^6, planted in a 6-well plate, and 60 mg/L of ox-LDL (oxidized modified low-density lipoprotein, Peking Union Medical College) was added, foam cells were obtained after 48 hours of incubation.
2. Grouping and index detection:
The obtained foam cells were divided into 61 groups, 3 well plates were included in one group. After the treatment by adding the drugs (100 μL/well) for 48 hours, the medium was discarded, and after oil red 0 staining, the excess amount of oil red 0 was washed away. The cells were dissolved in isopropanol and the absorbance values were measured at 490 nm. The OD value of the model group was 100%, and the OD value of each group corrected by the number of cells was compared with the model group to obtain the ratio of intracellular lipid content. The larger the value, the more intracellular lipids, the higher the degree of formation of foam cells.
Normal saline control group: normal saline
Low dose groups of the compounds prepared in Examples 1-30 of the present invention:
10 μmol/L (solvents were normal saline).
High dose groups of compounds prepared in Examples 1-30 of the present invention: 30 μmol/L (solvents were normal saline).
Data were expressed as x±s, and SPSS 10.0 line single-factor analysis of variance was performed amoung groups, a significant difference was indicated when p<0.05.

apoE−/− mice [2] = assay: Blood lipids (LDL-C, HDL-C) in apoE-/- mice on high-fat diet; format: in vivo, mouse; conditions: apoE-/- mice serum, intragastric 15 weeks, compounds 30 mg/(kg·d), simvastatin 10 mg/(kg·d), x ± s; for HDL-C: n = 5, saline control 3.74 ± 0.62; for LDL-C: n = 5, saline control 7.33 ± 1.03
Text: The effects of the compounds prepared in Examples 1-30 of the present invention on the percentages of areas of atherosclerotic plaque formation to the area of the entire artery in apoE−/− mice with a high-fat diet and the levels of low-density lipoprotein cholesterol and the levels of high-density lipoprotein, the specific steps are as follows:
1. animals: 160 ten-week-old, healthy and clean-grade apoE−/− mice (purchased from Peking University Experimental Animal Center), males, weight: 22-25 g, were housed in separate cages in a sterile laminar feeding room and fed freely. The mice were fed by a high-fat diet (conventional feed+0.15% cholesterol+21% lard) for 25 weeks, the room temperature was kept at 24° C., relative humidity: 50%, illumination time 7:30-19:30.
2. Grouping, administration method:
after 10 weeks of feeding, the animals were divided into the following 32 groups (n=5) by weight in a balanced and random manner, and killed 15 weeks after administration.
Normal saline control group: normal saline, intragastric administration.
Positive control group: simvastatin 10 mg/(kg·d), intragastric administration.
The compound groups prepared in Examples 1-30 of the present invention (30 groups in total): each was intragastric administered 30 mg/(kg·d).
(2) Determination of the levels of total cholesterol (TC), low-density cholesterol lipoprotein (LDL-C) and high-density lipoprotein cholesterol (HDL-C): using ROCHE 7060 automatic biochemical analyzer for the determination.
Data were expressed as x±s, and SPSS 10.0 line single-factor analysis of variance was performed among groups, a significant difference was indicated when p<0.05.

TNF-α = assay: Local TNF-α level in the arteries of apoE-/- mice (Millipore liquid phase chip); format: in vivo, mouse; conditions: high-fat diet, intragastric 15 weeks, compounds 30 mg/(kg·d), simvastatin 10 mg/(kg·d), x ± s, n = 5, saline control 25.58 ± 6.44
Text: (§1) The effects of the compounds prepared in Examples 1-30 of the present invention on the percentages of areas of atherosclerotic plaque formation to the area of the entire artery in apoE−/− mice with a high-fat diet and the levels of low-density lipoprotein cholesterol and the levels of high-density lipoprotein, the specific steps are as follows: 1. animals: 160 ten-week-old, healthy and clean-grade apoE−/− mice (purchased from Peking University Experimental Animal Center), males, weight: 22-25 g, were housed in separate cages in a sterile laminar feeding room and fed freely. The mice were fed by a high-fat diet (conventional feed+0.15% cholesterol+21% lard) for 25 weeks, the room temperature was kept at 24° C., relative humidity: 50%, illumination time 7:30-19:30. 2. Grouping, administration method: after 10 weeks of feeding, the animals were divided into the following 32 groups (n=5) by weight in a balanced and random manner, and killed 15 weeks after administration. Normal saline control group: normal saline, intragastric administration. Positive control group: simvastatin 10 mg/(kg·d), intragastric administration. The compound groups prepared in Examples 1-30 of the present invention (30 groups in total): each was intragastric administered 30 mg/(kg·d). (3) Determination of TNF-α level: Millipore liquid phase chip method was used for the determination (Mcytomag-70K-3, Mouse Cytokine/Chemokine Magnetic Bead Panel). Data were expressed as x±s, and SPSS 10.0 line single-factor analysis of variance was performed among groups, a significant difference was indicated when p<0.05.

RAW264.7 cells = assay: RAW264.7 cell survival rate by CCK8 method; format: cell-based, mouse; conditions: compound 10 prnol/L, 0.1% DMSO, CCK8, x ± s, n = 3, normal saline control = 1
Procedure: In order to further verify the toxicities of the compounds prepared in Examples 1-30 of the present invention, the mouse macrophage cell line RAW264.7 was cultured, and the compounds prepared in Examples 1-30 of the invention were prepared to a concentration of […] using culture medium, wherein the solvent was normal saline, the co-solvent was dimethyl sulfoxide (DMSO, the final concentratoin was 0.1%), and a 0.1% DMSO saline control group was provided. The cell survival rate was determined by CCK8 method. The data were expressed as x±s. SPSS 10.0 line single-factor analysis of variance was performed among groups. The difference was significant when p<0.05.

apoE−/− mice [3] = assay: Atherosclerotic plaque area to total aortic area in apoE-/- mice on high-fat diet (Sudan IV staining); format: in vivo, mouse; conditions: intragastric 15 weeks, compounds 30 mg/(kg·d), simvastatin 10 mg/(kg·d), x ± s, n = 5, saline control 14.67 ± 3.58
Text: as §1, with “(1) Analysis” for “(3) Determination”, “the area of atherosclerotic plaque and its percentage to total area: after the animals were killed, the aortas were separated, from the roots of the aortas to the terminal bifurcations of the abdominal aortas. After formalin fixation, the aortas were stained with Sudan IV, the red stained parts were the areas of atherosclerotic lesions. The percentage of the area of the lesion area to total area” for “TNF-α level: Millipore liquid phase chip method”, “calculated using Image Pro Plus 5.0 software.” for “used for the determination (Mcytomag-70K-3, Mouse Cytokine/Chemokine Magnetic Bead Panel).”

CC(=O)OC[C@H]1O[C@H](O[C@@](C)(CCC=C(C)C)C2CC[C@]3(C)[C@@H]2C(OC(C)=O)CC2[C@@]4(C)CC[C@H](OC(C)=O)C(C)(C)C4CC[C@]23C)[C@H](OC(C)=O)[C@@H](OC(C)=O)[C@@H]1OC(C)=O (some centres unmarked) [Compound 1]
Foam cell formation (%) ([1]; dose 10 μmol/L): 83 ± 12%
Foam cell formation (%) ([1]; dose 30 μmol/L): 65 ± 18 ^a %
HDL-C (apoE−/− mice [2]): 4.55 ± 0.86 ^a mmol/L
LDL-C (apoE−/− mice [2]): 6.39 ± 1.09 mmol/L
TNF-α level (ng/g) (TNF-α): 19.41 ± 3.81 ^a ng/g
Cell Survival Rate (RAW264.7 cells): 0.65 ± 0.07 ^a
Plaque area/total aorta area (%) (apoE−/− mice [3]): 10.65 ± 2.62 ^a %

CC(=O)OC[C@H]1O[C@H](O[C@@](C)(CCC2OC2(C)C)C2CC[C@]3(C)[C@@H]2C(OC(C)=O)CC2[C@@]4(C)CC[C@H](OC(C)=O)C(C)(C)C4CC[C@]23C)[C@H](OC(C)=O)[C@@H](OC(C)=O)[C@@H]1OC(C)=O (some centres unmarked) [Compound 2]
Foam cell formation (%) ([1]; dose 10 μmol/L): 70 ± 25 ^a %
Foam cell formation (%) ([1]; dose 30 μmol/L): 64 ± 19%
HDL-C (apoE−/− mice [2]): 5.47 ± 0.91 ^a mmol/L
LDL-C (apoE−/− mice [2]): 5.56 ± 1.24 ^a mmol/L
TNF-α level (ng/g) (TNF-α): 13.24 ± 3.71 ^a ng/g
Cell Survival Rate (RAW264.7 cells): 0.51 ± 0.08 ^a
Plaque area/total aorta area (%) (apoE−/− mice [3]): 8.27 ± 2.54 ^a %

CC(=O)OC[C@H]1O[C@H](O[C@@](C)(CCC=O)C2CC[C@]3(C)[C@@H]2C(OC(C)=O)CC2[C@@]4(C)CC[C@H](OC(C)=O)C(C)(C)C4CC[C@]23C)[C@H](OC(C)=O)[C@@H](OC(C)=O)[C@@H]1OC(C)=O (some centres unmarked) [Compound 3]
Foam cell formation (%) ([1]; dose 10 μmol/L): 85 ± 20%
Foam cell formation (%) ([1]; dose 30 μmol/L): 72 ± 13 ^a %
HDL-C (apoE−/− mice [2]): 4.97 ± 0.95 ^a mmol/L
LDL-C (apoE−/− mice [2]): 6.12 ± 1.28 mmol/L
TNF-α level (ng/g) (TNF-α): 16.68 ± 4.98 ^a ng/g
Cell Survival Rate (RAW264.7 cells): 0.42 ± 0.03 ^a
Plaque area/total aorta area (%) (apoE−/− mice [3]): 9.74 ± 3.19 ^a %

COC(=O)[C@H](CC(C)C)NCCC[C@](C)(O[C@H]1O[C@H](COC(C)=O)[C@@H](OC(C)=O)[C@H](OC(C)=O)[C@H]1OC(C)=O)C1CC[C@]2(C)[C@@H]1C(OC(C)=O)CC1[C@@]3(C)CC[C@H](OC(C)=O)C(C)(C)C3CC[C@]12C (some centres unmarked) [Compound 4]
Foam cell formation (%) ([1]; dose 10 μmol/L): 74 ± 15 ^a %
Foam cell formation (%) ([1]; dose 30 μmol/L): 54 ± 12 ^a %
HDL-C (apoE−/− mice [2]): 5.48 ± 0.61 ^a mmol/L
LDL-C (apoE−/− mice [2]): 4.62 ± 1.58 ^a mmol/L
TNF-α level (ng/g) (TNF-α): 11.04 ± 3.68 ^a ng/g
Cell Survival Rate (RAW264.7 cells): 0.84 ± 0.02
Plaque area/total aorta area (%) (apoE−/− mice [3]): 9.52 ± 4.21 ^a %

COC(=O)[C@@H](NCCC[C@](C)(O[C@H]1O[C@H](COC(C)=O)[C@@H](OC(C)=O)[C@H](OC(C)=O)[C@H]1OC(C)=O)C1CC[C@]2(C)[C@@H]1C(OC(C)=O)CC1[C@@]3(C)CC[C@H](OC(C)=O)C(C)(C)C3CC[C@]12C)C(C)C (some centres unmarked) [Compound 5]
Foam cell formation (%) ([1]; dose 10 μmol/L): 77 ± 18 ^a %
Foam cell formation (%) ([1]; dose 30 μmol/L): 62 ± 13 ^a %
HDL-C (apoE−/− mice [2]): 5.21 ± 0.73 ^a mmol/L
LDL-C (apoE−/− mice [2]): 5.58 ± 1.89 ^a mmol/L
TNF-α level (ng/g) (TNF-α): 17.73 ± 4.87 ^a ng/g
Cell Survival Rate (RAW264.7 cells): 0.87 ± 0.08
Plaque area/total aorta area (%) (apoE−/− mice [3]): 10.29 ± 2.67 ^a %

COC(=O)[C@H](NCCC[C@](C)(O[C@H]1O[C@H](COC(C)=O)[C@@H](OC(C)=O)[C@H](OC(C)=O)[C@H]1OC(C)=O)C1CC[C@]2(C)[C@@H]1C(OC(C)=O)CC1[C@@]3(C)CC[C@H](OC(C)=O)C(C)(C)C3CC[C@]12C)[C@@H](C)O (some centres unmarked) [Compound 6]
Foam cell formation (%) ([1]; dose 10 μmol/L): 73 ± 16 ^a %
Foam cell formation (%) ([1]; dose 30 μmol/L): 48 ± 14 ^a %
HDL-C (apoE−/− mice [2]): 5.51 ± 0.94 ^a mmol/L
LDL-C (apoE−/− mice [2]): 6.04 ± 1.07 mmol/L
TNF-α level (ng/g) (TNF-α): 11.35 ± 4.97 ^a ng/g
Cell Survival Rate (RAW264.7 cells): 0.83 ± 0.09
Plaque area/total aorta area (%) (apoE−/− mice [3]): 8.16 ± 2.83 ^a %

COC(=O)[C@H](CO)NCCC[C@](C)(O[C@H]1O[C@H](COC(C)=O)[C@@H](OC(C)=O)[C@H](OC(C)=O)[C@H]1OC(C)=O)C1CC[C@]2(C)[C@@H]1C(OC(C)=O)CC1[C@@]3(C)CC[C@H](OC(C)=O)C(C)(C)C3CC[C@]12C (some centres unmarked) [Compound 7]
Foam cell formation (%) ([1]; dose 10 μmol/L): 83 ± 13%
Foam cell formation (%) ([1]; dose 30 μmol/L): 71 ± 13 ^a %
HDL-C (apoE−/− mice [2]): 4.52 ± 0.46 ^a mmol/L
LDL-C (apoE−/− mice [2]): 5.50 ± 1.82 ^a mmol/L
TNF-α level (ng/g) (TNF-α): 17.77 ± 4.63 ^a ng/g
Cell Survival Rate (RAW264.7 cells): 0.86 ± 0.01
Plaque area/total aorta area (%) (apoE−/− mice [3]): 11.02 ± 2.71 ^a %

CCC(C)(C)C(=O)O[C@H]1C[C@@H](C)C=C2C=C[C@H](C)[C@H](CC[C@@H]3C[C@@H](O)CC(=O)O3)[C@H]21 [Simvastatin, simvastatin, reference compound]
HDL-C (apoE−/− mice [2]): 3.69 ± 0.72 ^a mmol/L
LDL-C (apoE−/− mice [2]): 2.75 ± 1.89 ^a mmol/L
TNF-α level (ng/g) (TNF-α): 14.84 ± 3.22 ^a ng/g
Plaque area/total aorta area (%) (apoE−/− mice [3]): 7.95 ± 2.03 ^a %
